Each structure is given as a SMILES string.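 48-hour exposure; five concentrations; linearly interpolated endpoints. Abbreviation: GI50, concentration required for 50% inhibition of growth. The concentration for full growth arrest is given as TGI.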

Common to all, as to experiment: NCI-60 cell line screen, 48 h
In test [1] the test system is LOX IMVI melanoma.
Test [2] relates to IGROV1 ovarian.
Test [3] relates to HCC-2998 colon.
Test [4] deals with SN12C renal.
In test [5] the test system is HCT-15 colon.
Test [6] concerns PC-3 prostate.
For test [7], the system named is SF-295 CNS.
The subject of test [8] is RPMI-8226 leukemia.
The subject of test [9] is SNB-19 CNS.
The test system of test [10] is K-562 leukemia.

For the compound `NCCOc1ccccc1/C=C1\c2ccccc2-c2ccc([N+](=O)[O-])cc21`, the GI50 was 1.33 µM in test [1]; 1.35 µM in [2]; 1.51 µM in [3]; 1.41 µM in test [4]; 1.2 µM in [5]; 1.52 µM in test [6]. The results for the GI50 in test [7] and in [8] were 1.7 µM and 1.79 µM, respectively. Further, the TGI was found to be 2.66 µM in test [1]; 2.68 µM in test [2]; 3.09 µM in test [3]; 2.82 µM in test [4]; 2.53 µM in [5]; 2.96 µM in test [6]. Further, the figures for the TGI in test [7] and in [8] were 3.18 µM and 3.63 µM, respectively.

As for `COC(=O)/C=C1/SC(N2N=C(c3cccs3)CC2c2ccc(F)cc2)=NC1=O` (stereo not drawn), the GI50 is 1.61 µM in test [1]; 2.4 µM in test [2]; 2.51 µM in [9]; 1.97 µM in [3]; 3.29 µM in test [4]; 1.95 µM in test [5]. Further, the GI50 in [6] was 1.92 µM; in test [7], 3.24 µM; in test [8], 2.08 µM. Moreover, the TGI stood at 3.06 µM in [1]; 7.06 µM in test [2]; 6.32 µM in test [9]; 3.52 µM in test [3]; 11 µM in test [4]; 4.44 µM in test [5]. The results for the TGI in [6], in [7] and in test [8] were 4.3 µM, 13.5 µM and 5.36 µM, respectively.

In the case of `OCCNCCCOc1ccc2ncnc(Nc3ccc(Oc4cccc(C(F)(F)F)c4)c(Cl)c3)c2c1`, the GI50 in test [1] was 1.71 µM; in [10], 1.79 µM; in test [2], 0.584 µM; in [3], 1.64 µM; in test [4], 1.43 µM; in [5] it was 1.54 µM. Moreover, the GI50 in test [6] was 1.66 µM; in test [7], 1.79 µM; in test [8] it was 1.51 µM. For the same compound, the TGI in test [1] came out at 3.15 µM; in [10], 4.48 µM; in test [2], 2.14 µM; in test [3], 3.1 µM; in test [4], 2.83 µM; in test [5] it was 3.01 µM. Moreover, the TGI in [6] was 3.21 µM; in test [7] it was 3.24 µM; in test [8], 4.1 µM.

Take `Cc1cc(N2CCCC2)nc(NCc2cc(Nc3ccnc4cc(Cl)ccc34)ccc2F)n1`: the GI50 was 1.12 µM in test [1]; 1.13 µM in test [3]; 1.06 µM in test [5]; 1.19 µM in [6]; 1.16 µM in [7]; 0.404 µM in test [8]. The TGI in test [1] turned out to be 2.48 µM; in [3], 2.45 µM; in test [5] it was 2.35 µM; in test [6], 2.58 µM; in test [7], 2.53 µM; in [8] it was 5.04 µM.

As for `C[C@]1(Cn2ccnn2)C(C(=O)O)N2C(=O)CC2S1(=O)=O` (stereo partly drawn), the GI50 in [10], in test [2], in test [9], in test [3], in [4] and in test [5] was above 100 µM throughout. The GI50 in test [6], in [7] and in test [8] was above 100 µM in each case. The TGI in test [10], in test [2], in [9], in test [3], in test [4] and in [5] was above 100 µM each time. For the same compound, the TGI in [6], in [7] and in test [8] was above 100 µM each time.

As to `COC1C(OC(=O)/C=C/C=C/C=C/C=C\C(=O)O)CCC2(CO2)C1C1(C)OC1CC=C(C)C` (stereo not drawn), the GI50 in test [1], in test [10], in test [2], in test [9], in test [4] and in [5] was above 200 µM in each case. The GI50 in test [6], in test [7] and in test [8] was above 200 µM in each case. The TGI in test [1], in [10], in test [2], in test [9], in test [4] and in test [5] was above 200 µM throughout. For the same compound, the TGI in test [6], in [7] and in test [8] was above 200 µM in each case.

Regarding `Oc1cccc(/C=N/Nc2nnc(N/N=C/c3cccc(O)c3)c3ccccc23)c1`, the TGI is 34.1 µM in test [1]; 47.6 µM in test [10]; 47.7 µM in test [2]; above 100 µM in [9]; 30.5 µM in test [4]; 39 µM in test [5]. The TGI in test [6] was 44.4 µM; in test [7] it was 31.8 µM; in test [8] it was 92.2 µM.

Turning to `C/C(=N\NC(=S)N1CCCCCCCCCCCC1)c1ccccn1`, the TGI in test [1] is 1.23 µM; in test [10], 0.121 µM; in test [2], 1.35 µM; in test [9], 2.03 µM; in test [3] it was 1.63 µM; in [4], 2.19 µM. Further, the figures for the TGI in test [5], in test [6] and in test [7] were 1.6 µM, 1.1 µM and 1.01 µM, respectively.

Consider `Oc1ccc(CCNCc2cc3c(cc2Br)OCO3)cc1`, for which the TGI in test [1], in test [10], in test [2], in test [9], in test [4] and in test [5] was above 100 µM each time. For the same compound, the TGI in test [6], in [7] and in test [8] was above 100 µM each time.

Consider `CCCNC(=O)c1ccc(Cl)cc1Cl`, for which the GI50 in test [1], in [10], in test [2], in test [9], in test [4] and in test [5] was above 100 µM throughout. Moreover, the GI50 in test [6] and in test [7] was above 100 µM throughout. In addition, the TGI in [1], in test [10], in [2], in test [9], in test [4] and in test [5] was above 100 µM each time. Moreover, the TGI in [6] and in test [7] was above 100 µM throughout.

Regarding `NC(N)=Nc1nc2ccc([N+](=O)[O-])cc2[nH]1`, the TGI in [1], in [10], in test [2], in test [9], in [4] and in test [5] was above 100 µM throughout. Also, the TGI in test [6], in test [7] and in test [8] was above 100 µM each time.

Turning to `Cc1ccc(C2=C(c3ccccc3)C(c3ccccc3)Oc3ccc(C)cc32)cc1` (stereo not drawn), the GI50 in test [1] was 13.8 µM; in test [10] it was 8.29 µM; in test [2], 2.49 µM; in [3], 1.64 µM; in test [4], 17.3 µM; in [5] it was 16.9 µM. The figures for the GI50 in test [6], in test [7] and in [8] were 12.8 µM, 3.66 µM and 6.97 µM, respectively. For the same compound, the TGI in [1] worked out at 32 µM; in test [10] it was 42.7 µM; in test [2], 7.1 µM; in test [3], 3.1 µM; in [4], 34.3 µM; in test [5] it was 35.8 µM. In addition, the values for the TGI in test [6], in [7] and in test [8] were 34.4 µM, 13.8 µM and 41.3 µM, respectively.

With `C=C(CC(=O)O)C(=O)O` (tested in a mixture with another compound), the GI50 in [1], in [10], in [2], in [9], in test [4] and in test [5] was above 50 µg/mL in each case. In addition, the GI50 in test [6], in [7] and in test [8] was above 50 µg/mL in each case. Also, the TGI in test [1], in test [10], in test [2], in test [9], in test [4] and in [5] was above 50 µg/mL each time. The TGI in test [6], in test [7] and in test [8] was above 50 µg/mL throughout.

As for `COc1cccc2c1C(=O)c1c(O)c3c(c(O)c1C2=O)C[C@@](O)(C(=O)CO)CC3OC1CC(O)C(O)C(C)O1` (stereo partly drawn), the TGI in [1] came to 2.53 µM; in [10], 5.51 µM; in test [2], 23.6 µM; in test [9], 2.93 µM; in test [3], 2.08 µM; in test [4] it was 8.19 µM. Further, the TGI in test [5] is 5.89 µM; in [6] it was 2.39 µM; in test [7], 1.16 µM.

Consider `Cc1cccc(N2C(=O)C(=O)C(c3nc4ccccc4s3)/C(=N/NC(=S)NN)C2=O)c1C` (stereo not drawn), for which the TGI in test [1], in [10], in [2], in test [9], in test [3] and in test [4] was above 100 µM in each case. Moreover, the TGI in test [5], in test [7] and in [8] was above 100 µM throughout.

For the compound `CCOC(=O)C1=C(C)N(NC(N)=O)C(C)(O)C12CCOC2=O` (stereo not drawn), the TGI in [1], in test [10], in test [2], in test [9], in test [3] and in test [4] was above 100 µM throughout. Also, the TGI in test [5], in test [7] and in [8] was above 100 µM in each case.

As to `O=[N+]([O-])c1ccc(/C=C/c2csnn2)cc1`, the TGI in test [1], in [10], in test [2], in [9], in test [3] and in test [4] was above 100 µM each time. In addition, the TGI in [5], in test [7] and in test [8] was above 100 µM throughout.

With `COC(=O)N/N=C(/CCC(=O)Nc1ccc(C)c(C)c1)CC(=O)C(C)(C)C`, the TGI in test [1], in [10], in [2], in test [9], in test [3] and in test [4] was above 100 µM in each case. In addition, the TGI in [5], in [7] and in test [8] was above 100 µM each time.

Consider `O=[N+]([O-])c1ccccc1C=NC12CC3CC(CC(C3)C1)C2`, for which the TGI in [1], in test [10], in [2], in test [9], in [3] and in test [4] was above 100 µM each time. Further, the TGI in test [5], in test [7] and in test [8] was above 100 µM throughout.

As to `COc1cc2c(cc1OC)NC(=O)NC(Cc1ccc3c(c1)OCO3)CC2` (stereo not drawn), the TGI in test [1], in test [10], in test [2], in test [9], in test [3] and in test [4] was above 100 µM in each case. The TGI in test [5], in test [7] and in test [8] was above 100 µM each time.

As for `CC(=O)C1=C(C)N(C)C2(O)C=CC(=O)C3=C(O)c4ccccc4C(=O)C312` (stereo not drawn), the GI50 in [10] was 3.14 µM; in [2], 23.5 µM; in test [9], 2.18 µM; in test [3] it was 13.8 µM; in test [4] it was 3.13 µM; in test [5], 5.41 µM. The GI50 in test [6] was 3.42 µM; in test [7] it was 5.03 µM; in test [8], 3.02 µM. Besides, the TGI is above 100 µM in test [10]; above 100 µM in test [2]; 27 µM in test [9]; 61.8 µM in test [3]; 8.81 µM in test [4]; 21.7 µM in test [5]. Also, the TGI in test [6] was determined as 15.9 µM; in test [7], 19.6 µM; in test [8], 31.5 µM.

For the compound `CC1(C)C(=O)/C=C\C(=O)C(C)(C)C(=O)/C=C\C(=O)C(C)(C)C(=O)/C=C\C(=O)C(C)(C)C(=O)/C=C\C1=O`, the TGI is above 53.8 µM in test [1]; 39.4 µM in [10]; 56.5 µM in test [2]; above 71.1 µM in [9]; 54.8 µM in [4]; 61.5 µM in test [5]. For the same compound, the TGI in test [6] was above 100 µM; in test [7], 54.5 µM; in test [8] it was 24.2 µM.

These data come from PubChem BioAssay (NCI).
